Data reported in US11459335B2, “N/O-linked Degrons and Degronimers for protein degradation” (C4 Therapeutics, Inc., priority 2017, dated 2022).

Biological target: CRBN-DDB1 (Homo sapiens (Human), UniProt Q96SW2)
Experiment: Fluorescence polarization (FP) assay for compound ligand binding to CRBN-DDB1
Details: FP displacement of (−)-Thalidomide-Alexa Fluor or Pomalidomide-fluorescein probe (5 nM), 400 nM CRBN-DDB1, 60 min room temperature
Method: Measuring compound ligand binding to CRBN-DDB1 was carried out using an established sensitive and quantitative in vitro fluorescence polarization (FP) based binding assay. […] Compounds were dispensed from serially diluted DMSO stock into black 384-well compatible fluorescence polarization plates using an Echo acoustic dispenser. Compound binding to CRBN-DDB1 was measured by displacement of either a (−)-Thalidomide-Alexa Fluor® or Pornalidomide-fluorescein conjugated probe dye. […] Matching control wells excluding CRBN-DDB1 were used to correct for background fluorescence. Plates were read on an Envision plate reader with appropriate FP filter sets. The corrected S (perpendicular) and P (parallel) values were used to calculate fluorescence polarization (FP) with the following equation: FP=1000*(S−G*P)/(S+G*P).

[1] = Additional Compounds of the Present Invention
[2] = Degrons, Compounds of the Present Invention

CRBN-DDB1, sequence (Q96SW2 whole entry): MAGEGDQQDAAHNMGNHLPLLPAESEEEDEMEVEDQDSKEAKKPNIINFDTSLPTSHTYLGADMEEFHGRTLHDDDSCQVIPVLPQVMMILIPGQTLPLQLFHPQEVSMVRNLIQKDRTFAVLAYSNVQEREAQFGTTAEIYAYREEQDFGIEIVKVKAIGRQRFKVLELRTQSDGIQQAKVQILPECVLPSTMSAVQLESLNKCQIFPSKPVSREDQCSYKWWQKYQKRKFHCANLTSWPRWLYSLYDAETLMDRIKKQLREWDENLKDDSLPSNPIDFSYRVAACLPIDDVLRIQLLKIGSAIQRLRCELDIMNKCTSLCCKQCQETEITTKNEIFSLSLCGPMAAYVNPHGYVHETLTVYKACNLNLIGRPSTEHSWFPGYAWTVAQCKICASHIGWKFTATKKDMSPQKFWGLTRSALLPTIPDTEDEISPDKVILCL
CRBN-DDB1, sequence (Q16531 whole entry partner): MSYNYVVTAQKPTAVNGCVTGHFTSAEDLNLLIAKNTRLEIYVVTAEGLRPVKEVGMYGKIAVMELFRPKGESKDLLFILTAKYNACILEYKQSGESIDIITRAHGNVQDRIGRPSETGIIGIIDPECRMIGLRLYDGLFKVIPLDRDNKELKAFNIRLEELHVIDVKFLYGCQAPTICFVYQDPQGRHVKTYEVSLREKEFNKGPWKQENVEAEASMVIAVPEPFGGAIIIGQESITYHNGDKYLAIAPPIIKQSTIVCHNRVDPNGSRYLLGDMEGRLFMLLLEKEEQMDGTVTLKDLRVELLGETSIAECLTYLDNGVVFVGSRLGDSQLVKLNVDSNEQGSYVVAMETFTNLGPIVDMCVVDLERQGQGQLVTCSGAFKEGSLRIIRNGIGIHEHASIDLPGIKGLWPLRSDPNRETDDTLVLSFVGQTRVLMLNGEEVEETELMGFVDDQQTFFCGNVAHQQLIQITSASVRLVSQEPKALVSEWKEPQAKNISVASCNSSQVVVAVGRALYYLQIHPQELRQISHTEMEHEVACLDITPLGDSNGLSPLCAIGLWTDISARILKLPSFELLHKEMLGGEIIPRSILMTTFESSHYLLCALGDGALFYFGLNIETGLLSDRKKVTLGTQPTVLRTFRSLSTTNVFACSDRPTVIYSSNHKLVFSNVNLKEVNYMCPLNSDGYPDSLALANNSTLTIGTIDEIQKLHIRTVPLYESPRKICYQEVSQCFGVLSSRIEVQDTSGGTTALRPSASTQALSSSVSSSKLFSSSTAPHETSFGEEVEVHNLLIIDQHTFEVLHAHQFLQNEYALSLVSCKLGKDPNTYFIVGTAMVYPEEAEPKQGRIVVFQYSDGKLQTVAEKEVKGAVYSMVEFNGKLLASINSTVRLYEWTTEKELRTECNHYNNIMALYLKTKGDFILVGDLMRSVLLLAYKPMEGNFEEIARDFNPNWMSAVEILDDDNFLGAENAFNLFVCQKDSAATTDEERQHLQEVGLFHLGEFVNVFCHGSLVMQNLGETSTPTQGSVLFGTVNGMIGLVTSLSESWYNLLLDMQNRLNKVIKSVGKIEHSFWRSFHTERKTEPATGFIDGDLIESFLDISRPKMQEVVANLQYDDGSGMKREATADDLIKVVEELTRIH

SMILES | Kd [1] [µM] | Kd [2] [µM]
O=C1CC[C@@H](O[C@H]2CCN(c3ccccc3)C2=O)C(=O)N1 (single isomer, unassigned) [Compound 161, 3-(2-Oxo-1-phenyl-pyrrolidin-3-yloxy)-piperidine-2,6-dione] | 50 to 100 | 
O=C1CC[C@H](O[C@H]2CCN(c3ccccc3)C2=O)C(=O)N1 (single isomer, unassigned) [Compound 162, 3-(2-Oxo-1-phenyl-pyrrolidin-3-yloxy)-piperidine-2,6-dione] | 10 to 50 | 
CN(c1ccc(F)cc1F)C1CCC(=O)NC1=O (stereo not drawn) [Compound 2] |  | 50 to 100
O=C1CCC(Nc2ccc(F)cc2)C(=O)N1 (stereo not drawn) [Compound 8] |  | 10 to 50
O=C1CCC(Nc2ccccc2N2CCOCC2)C(=O)N1 (stereo not drawn) [Compound 14] |  | 10 to 50
CN(c1ccc(F)cc1)C1CCC(=O)NC1=O (stereo not drawn) [Compound 17] |  | 10 to 50
O=C1CCC(Nc2ccccc2OC(F)(F)F)C(=O)N1 (stereo not drawn) [Compound 21] |  | 10 to 50
COc1ccc(C(F)(F)F)cc1NC1CCC(=O)NC1=O (stereo not drawn) [Compound 24] |  | 10 to 50
COc1ccc(C(C)(C)C)cc1NC1CCC(=O)NC1=O (stereo not drawn) [Compound 25] |  | 50 to 100
O=C1CCC(Nc2c(F)cccc2F)C(=O)N1 (stereo not drawn) [Compound 63] |  | 10 to 50
COc1ccc(N(C)C2CCC(=O)NC2=O)c(OC)c1 (stereo not drawn) [Compound 69] |  | 10 to 50
O=C1CCC(Nc2ccccc2CN2CCCC2)C(=O)N1 (stereo not drawn) [Compound 71] |  | 10 to 50
O=C1CCC(Nc2cccc(CN3CCCCC3)c2)C(=O)N1 (stereo not drawn) [Compound 72] |  | 10 to 50
CC(C)(C)OC(=O)N1CCC(n2cc(NC3CCC(=O)NC3=O)cn2)CC1 (stereo not drawn) [Compound 73] |  | 50 to 100
Cn1cnc2c(NC3CCC(=O)NC3=O)cccc21 (stereo not drawn) [Compound 74] |  | 10 to 50
O=C1CCC(Nc2cnn(-c3ccccc3)c2)C(=O)N1 (stereo not drawn) [Compound 75] |  | 10 to 50
CN1CCc2ccc(NC3CCC(=O)NC3=O)cc2C1=O (stereo not drawn) [Compound 76] |  | 10 to 50
Cn1cnc2cc(NC3CCC(=O)NC3=O)ccc21 (stereo not drawn) [Compound 78] |  | 10 to 50
O=C1CCC(Nc2cccnc2)C(=O)N1 (stereo not drawn) [Compound 80] |  | 10 to 50

SMILES | Kd [1] [µM] | Kd [2] [µM]
O=C1CCC(Nc2ccc3c(c2)CCNC3)C(=O)N1 (stereo not drawn) [Compound 83] |  | 10 to 50
O=C1CCC(Nc2ccc(C3CCNCC3)cn2)C(=O)N1 (stereo not drawn) [Compound 84] |  | 10 to 50
CN(c1cccc(N2CCNCC2)c1)C1CCC(=O)NC1=O (stereo not drawn) [Compound 87] |  | 10 to 50
O=C1CCC(Nc2ccc(N3CCNCC3)cc2)C(=O)N1 (stereo not drawn) [Compound 89] |  | 10 to 50
NCc1ccc(NC2CCC(=O)NC2=O)cc1 (stereo not drawn) [Compound 90] |  | 10 to 50
NCc1cccc(NC2CCC(=O)NC2=O)c1 (stereo not drawn) [Compound 91] |  | 10 to 50
CN1Cc2ccc(NC3CCC(=O)NC3=O)cc2C1=O (stereo not drawn) [Compound 93] |  | 50 to 100
O=C1CCC(Nc2cnn(C3CCNCC3)c2)C(=O)N1 (stereo not drawn) [Compound 94] |  | 10 to 50
CN(C1CN(C(=O)OC(C)(C)C)C1)C1CCC(=O)NC1=O (stereo not drawn) [Compound 98] |  | 50 to 100
CN(C1CN(c2ccccc2)C1)C1CCC(=O)NC1=O (stereo not drawn) [Compound 103] |  | 10 to 50
CN1CC(N(C)C2CCC(=O)NC2=O)CC1=O (stereo not drawn) [Compound 104] |  | 50 to 100
CN(C1CC(=O)N(c2ccccc2)C1)C1CCC(=O)NC1=O (stereo not drawn) [Compound 105] |  | 50 to 100
CN(CC(=O)Nc1ccccc1)C1CCC(=O)NC1=O (stereo not drawn) [Compound 108] |  | 10 to 50
CN(CC(N)=O)C1CCC(=O)NC1=O (stereo not drawn) [Compound 110] |  | 10 to 50
COc1cc(OC)nc(NC2CCC(=O)NC2=O)n1 (stereo not drawn) [Compound 113] |  | 50 to 100
O=C1CCC(Nc2ccn(-c3ccccc3)n2)C(=O)N1 (stereo not drawn) [Compound 114] |  | 10 to 50
O=C1CCC(Nc2cccnc2)C(=O)N1 (stereo not drawn) [Compound 115] |  | 10 to 50
Cn1nc(NC2CCC(=O)NC2=O)c2ccccc21 (stereo not drawn) [Compound 116] |  | 10 to 50
CC(C)(C)OC(=O)N1Cc2cnc(NC3CCC(=O)NC3=O)nc2C1 (stereo not drawn) [Compound 117] |  | 50 to 100

SMILES | Kd [1] [µM] | Kd [2] [µM]
O=C1CCC(Nc2cc(C(=O)N3CCCC3)ccn2)C(=O)N1 (stereo not drawn) [Compound 119] |  | 50 to 100
O=C1CCC(Nc2ccc3ccccc3n2)C(=O)N1 (stereo not drawn) [Compound 120] |  | 10 to 50
CC(C)(C)OC(=O)N1CCN(c2nccc(NC3CCC(=O)NC3=O)n2)CC1 (stereo not drawn) [Compound 121] |  | 50 to 100
CC(C)(C)OC(=O)N1CCC(c2ccc(NC3CCC(=O)NC3=O)nc2)CC1 (stereo not drawn) [Compound 123] |  | 10 to 50
Cc1cnc(NC2CCC(=O)NC2=O)cn1 (stereo not drawn) [Compound 124] |  | 10 to 50
O=C1CCC(Nc2ccccc2)C(=O)N1 (stereo not drawn) [Compound 125] |  | 10 to 50
O=C1CCC(Oc2ccccc2)C(=O)N1 (stereo not drawn) [Compound 129] | 10 to 50 | 
CN1CCN(c2ccc(OC3CCC(=O)NC3=O)cc2)CC1 (stereo not drawn) [Compound 130] | 10 to 50 | 
CC(C)(C)OC(=O)N1CCN(c2ccc(COC3CCC(=O)NC3=O)cc2)CC1 (stereo not drawn) [Compound 131, 4-[4-(2,6-Dioxo-piperidin-3-yloxymethyl)-phenyl]-piperazine-1-carboxylic Acid tert-butyl Ester] | 10 to 50 | 
Cn1cnc2cc(OC3CCC(=O)NC3=O)ccc21 (stereo not drawn) [Compound 142] | 10 to 50 | 
Cc1ccn(-c2ccc(OC3CCC(=O)NC3=O)cc2)n1 (stereo not drawn) [Compound 143] | 10 to 50 | 
CS(=O)(=O)c1cccc(OC2CCC(=O)NC2=O)c1 (stereo not drawn) [Compound 144] | 10 to 50 | 
CC(=O)c1cc(C)ccc1OC1CCC(=O)NC1=O (stereo not drawn) [Compound 146] | 50 to 100 | 
CC(=O)c1ccccc1OC1CCC(=O)NC1=O (stereo not drawn) [Compound 153] | 50 to 100 | 
COC(=O)c1ccccc1OC1CCC(=O)NC1=O (stereo not drawn) [Compound 155] | 50 to 100 | 
CC(C)(C)OC(=O)N1CCN(c2ccc(NC3CCC(=O)NC3=O)cn2)CC1 (stereo not drawn) [Compound 156, 4-[5-(2,6-Dioxo-piperidin-3-ylamino)-pyridin-2-yl]-piperazine-1-carboxylic Acid tert-butyl Ester] | 10 to 50 | 
Cn1nc(NC2CCC(=O)NC2=O)cc1-c1ccccc1 (stereo not drawn) [Compound 157, 3-(1-Methyl-5-phenyl-1H-pyrazol-3-ylamino)-piperidine-2,6-dione] | 10 to 50 | 
O=C1CCC(Nc2ccc(N3CCNCC3)nc2)C(=O)N1 (stereo not drawn) [Compound 158, 3-(6-Piperazin-1-yl-pyridin-3-ylamino)-piperidine-2,6-dione] | 10 to 50 | 
O=C1CCC(Nc2ccc3cccnc3c2)C(=O)N1 (stereo not drawn) [Compound 163] | 10 to 50 | 
